The text below walks through data of paper PMC8914261, “Discovery and Characterization of the Naturally Occurring Inhibitors Against Human Pancreatic Lipase in Ampelopsis grossedentata” (Frontiers in Nutrition, 2022).

Data set [1] concerns the target T1, human pancreatic lipase (hPL) (Homo sapiens, UniProt P16233).
T1 construct: made in house
T1 sequence (P16233 17-465): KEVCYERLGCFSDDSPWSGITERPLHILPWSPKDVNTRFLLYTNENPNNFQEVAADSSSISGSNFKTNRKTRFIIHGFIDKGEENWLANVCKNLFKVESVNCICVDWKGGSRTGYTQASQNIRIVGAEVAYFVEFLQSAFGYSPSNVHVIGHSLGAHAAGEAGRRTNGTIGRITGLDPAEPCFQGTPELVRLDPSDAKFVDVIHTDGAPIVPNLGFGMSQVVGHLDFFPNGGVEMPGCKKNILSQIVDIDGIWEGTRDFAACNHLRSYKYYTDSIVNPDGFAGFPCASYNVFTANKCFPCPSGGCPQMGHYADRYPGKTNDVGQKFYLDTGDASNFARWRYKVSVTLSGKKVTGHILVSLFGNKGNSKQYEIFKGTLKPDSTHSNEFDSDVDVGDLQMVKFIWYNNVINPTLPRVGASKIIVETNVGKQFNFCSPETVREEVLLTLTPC
Kind of data set: hPL inhibition assay (hPL-catalyzed DDAO-ol hydrolysis, fluorescence). It is filed as biochemical. The following applies: for IC50: hPL, DDAO-ol 20 μM as substrate, 3 min pre-incubation at 37°C; for hPL inhibition at high dose: inhibitor at 100 μM; for hPL inhibition activity (qualitative): tested at 1, 10 and 100 μM; for remaining activity at 10 µM: inhibitor at 10 μM, read-out: residual activities of hPL.

Data set [2] can be described thus: Estimated local exposure in the gastrointestinal tract (daily dose divided by volume of the human gastrointestinal system). As to conditions: oral AGE at daily dosage recommended by Chinese Materia Medica. From the text: A. grossedentata is known as the “king of flavonoids”, while the content of total flavonoids in AGE is up to 45% ([57]). Herein, a total of nine flavonoids in AGE were identified and characterized by LC–MS/MS-based chemical profiling.

Data set [3] addresses T1, human pancreatic lipase (hPL). The experiment in a line: Time-dependent inhibition assay of hPL (different pre-incubation times). Type of data set: biochemical. As to conditions: long pre-incubation time vs. standard. Here is the method:
After pre-incubating at 37°C for 3 min, the substrate of DDAO-ol (20 μM, final concentration) was added to the initial reaction. […] The standard curve was plotted using DDAO as product standard (Supplementary Figure S6). The control incubations without inhibitors were also performed.

For data set [4] the target is unchanged. Kind of data set: Inhibition kinetic analyses against hPL-catalyzed DDAO-ol hydrolysis (Lineweaver-Burk). Type of data set: biochemical.
The conditions of data set [5]: oral administration; ref [60], [61]; cited from earlier work.

Turning to `O=c1c(O[C@@H]2OC[C@@H](O)[C@H](O)[C@H]2O)c(-c2ccc(O)c(O)c2)oc2cc(O)cc(O)c12` [Reynoutirn, Reynoutrin], in data set [1], the IC50 was over 100 µM and the “hPL inhibition at high dose” value is “did not inhibit”.
For the compound `O=C1c2c(O)cc(O)cc2O[C@H](c2cc(O)c(O)c(O)c2)[C@@H]1O` [Iso-dihydromyricetin], in data set [1], the IC50 came out at 14.4 ± 1.21 µM and the “hPL inhibition activity (qualitative)” value is listed as “moderate”. Besides, in data set [2], the “local exposure in the gastrointestinal tract” value is 106.90 µM.
On to `O=c1c(O)c(-c2ccc(O)c(O)c2)oc2cc(O)cc(O)c12` [Quercetin], for which the “time dependence of hPL inhibition” value in data set [3] is “not time-dependent”. Also, the Inhibition mode entry in data set [4] (Lineweaver-Burk plots) is “Non-competitive”. The remaining activity at 10 µM in data set [1] is under 15%.
As to Myricitrin, the “hPL inhibition at high dose” value in data set [1] is “did not inhibit”.
Turning to “Sanggenone C [SanggenoneC, reference compound]”, the IC50 in data set [1] amounted to 3.46 ± 0.07 µM.
For `O=c1c(O)c(-c2cc(O)c(O)c(O)c2)oc2cc(O)cc(O)c12` [Myricetin], in data set [3], the “time dependence of hPL inhibition” value is “not time-dependent”. For the same compound, in data set [4] (apparent Ki), the Ki was 2.04 ± 0.75 µM. For the same compound, in data set [1], it took 1.34 ± 0.18 µM to reach half-maximal inhibition (IC50) and the remaining activity at 10 µM is under 15%. The “local exposure in the gastrointestinal tract” value in data set [2] was 19.37 µM.
In the case of `O=C1c2c(O)cc(O)cc2OC(c2ccc(O)c(O)c2)C1O` (stereo not shown) [Taxifolin], in data set [1], half-maximal inhibition (IC50) required 27.8 ± 2.92 µM and the “hPL inhibition activity (qualitative)” value was “moderate”. In addition, the “local exposure in the gastrointestinal tract” value in data set [2] was 11.85 µM.
In the case of `O=C1c2c(O)cc(O)cc2O[C@H](c2cc(O)c(O)c(O)c2)[C@H]1O` [Dihydromyricetin], in data set [5], the “local exposure in stomach and small intestine vs. other deep organs (heart, liver, spleen, lung, kidney, brain)” value is “much higher”; the oral bioavailability result was “very poor”. In data set [1], this compound yielded an IC50 of 34.3 ± 4.63 µM. In data set [2], the “local exposure in the gastrointestinal tract” value is 206.08 µM.

The term IC50 denotes the midpoint of a concentration-inhibition curve.
